One compound from patent US8765098B2, “Star polymers, methods of preparation thereof, and uses thereof” (International Business Machines Corporation, priority 2010, dated 2014) can be followed below.

A short description of this series: Appearance of aqueous mixtures of star polymer, dye alone and loaded star polymers (FIG. 10). The following applies: in water, FIG. 10 vials A-D. Format: physicochemical. As to the method:
The solution was added drop-wise to water (0.9 mL) with rapid stirring, causing the water to rapidly and uniformly color from the dye. Excess solid dye material not adsorbed to the star polymer was removed by passing the mixture through a 0.2 micrometer syringe filter, thereby forming a clear and uniformly colored aqueous solution. The further addition of water had no visible effect on the homogeneity of the solution.
FIG. 10 is a photograph of four aqueous mixtures. […] The vial labeled C is an aqueous mixture of 5,10,15,20-(3,5-ditertbutylphenyl)porphyrin (M=2H) (DTBP) alone in water.

As to `CC(C)(C)c1cc(-c2c3nc(c(-c4cc(C(C)(C)C)cc(C(C)(C)C)c4)c4ccc([nH]4)c(-c4cc(C(C)(C)C)cc(C(C)(C)C)c4)c4nc(c(-c5cc(C(C)(C)C)cc(C(C)(C)C)c5)c5ccc2[nH]5)C=C4)C=C3)cc(C(C)(C)C)c1` [DTBP, 5,10,15,20-(3,5-ditertbutylphenyl)porphyrin (M=2H)], the “appearance of aqueous solution / mixture” value is “clear and colorless”.
